assay: Inhibition of rat intestinal maltase

| Structure (SMILES) | IC50 |
| --- | --- |
| OC[C@@H]1[C@@H](O)[C@H](O)C[S@+]1C[C@@H](O)[C@H](O)[C@H](O)[C@@H](O)CO [1,4-Dideoxy-1,4-{(R)-[(2S,3R,4R,5S)-2,3,4,5,6-pentahydroxyhexyl]episulfoniumylidene}-D-arabinitol chloride] | 1.3 µM |
| OC[C@@H](O)C[S@@+]1C[C@@H](O)[C@H](O)[C@H]1CO [1,4-dideoxy-1,4-{(R)-[(2S)-2,3-dihydro-xypropyl]episulfoniumylidene}-D-arabinitol Chloride] | 105 µM |
| OC[C@H](O)C[S@@+]1C[C@@H](O)[C@H](O)[C@H]1CO [Neosalaprinol] | > 384 µM |
| O=S(=O)([O-])O[C@@H]([C@H](O)[C@@H](O)CO)[C@H](O)C[S@@+]1C[C@@H](O)[C@H](O)[C@H]1CO [ponkoranol] | 3.2 µM |

Second part, the compound after the results:

| IC50 | Structure (SMILES) |
| --- | --- |
| 4.3 µM | OC[C@@H](O)[C@@H](O)[C@H](O)[C@H](O)C[S@@+]1C[C@@H](O)[C@H](O)[C@H]1CO [(1R,2R,3S,4S)-3,4-dihydroxy-2-(hydroxymethyl)-1-((2S,3S,4R,5R)-2,3,4,5,6-pentahydroxyhexyl)tetrahydro-1H-thiophenium chloride] |
| 5.1 µM | OC[C@@H]1[C@@H](O)[C@H](O)C[S@+]1C[C@@H](O)[C@@H](O)[C@H](O)[C@@H](O)CO [(1R,2R,3S,4S)-3,4-dihydroxy-2-(hydroxymethyl)-1-((2S,3S,4R,5S)-2,3,4,5,6-pentahydroxyhexyl)tetrahydro-1H-thiophenium chloride] |
| 4.8 µM | OC[C@@H]1[C@@H](O)[C@H](O)C[S@+]1C[C@@H](O)[C@@H](O)[C@H](O)[C@H](O)[C@@H](O)CO [(2R,3S,4S)-1-[(2S,3S,4R,5R,6S)-2,3,4,5,6,7-hexahydroxyheptyl]-3,4-dihydroxy-2-(hydroxymethyl)tetrahydrothiophenium (non-preferred name)] |

— BindingDB's records for doi:10.1016/j.bmc.2011.01.052 (Kinki University, 2011)
